Assay results: patent publication US8604024B2, “Compounds for the reduction of beta-amyloid production” (Bristol-Myers Squibb Company, priority 2011, dated 2013)
Structures can show the parent of a compound that is named as a salt.

test system: Aβ1-42 production in H4 cells stably transfected with APP751 containing the Swedish mutation; assay: Cellular assay for inhibition of Aβ1-42 production (H4 APP751 SWE clone 8.20); format: cell-based; settings: 19 h, H4 APP751 SWE clone 8.20 cells, 19 h incubation; read-out: Aβ42 cellular IC50
Method: Cellular Assays for Inhibition of Aβ1-40 and Aβ1-42 Production
H4 cells stably transfected with APP751 containing the Swedish mutation (H4 APP751 SWE clone 8.20, developed at BMS) were maintained in log phase through twice weekly passage at a 1:20 split. […] Following incubation for 19 h in 5% CO2 at 37° C., plates were briefly centrifuged (1000 rpm, 5 min). A 10 μl aliquot from each well was transferred to a second assay plate (Costar 3709) for Aβ40 measurements. Antibody cocktails were freshly prepared by dilution into 40 mM Tris-HCl (pH 7.4) with 0.2% BSA and added to assay plates. For Aβ42 measurements, antibodies specific for the Aβ42 neoepitope (565, developed at BMS; conjugated to the Wallac reagent (Perkin Elmer)) and the N-terminal sequence of Aβ peptide (26D6, developed at SIBIA; conjugated to APC (Perkin Elmer)) were mixed and 20 μl of the mixture was added to each well of the incubated cell plate yielding a final concentration of 0.8 ng/well 565 and 75 ng/well 26D6. For the Aβ40 measurements, antibodies specific for the Aβ40 neoepitope (TSD, developed at BMS; conjugated to the Wallac reagent (Perkin Elmer)) and 26D6 as described above were mixed and 20 μl of the mixture was added to the 10 μl aliquots which had been removed previously from the cell plate yielding a final concentration of 1.6 ng/well TSD and 17.5 ng/well 26D6. Assay plates containing antibodies were sealed with aluminum foil and incubated overnight at 4° C. Signal was determined using a Viewlux counter (Perkin Elmer) and IC50 values determined using curve fitting in CurveMaster (Excel Fit based).

IC50 | Compound
2500 nM | C[C@@]12N=C(N)SC[C@@H]1CCCc1ccc(NC(=O)c3ccc(F)cn3)cc12 [Example 43a, N-((4aR,11bR)-2-Amino-11b-methyl-4,4a,5,6,7,11b-hexahydrobenzo[6,7]cyclohepta[1,2-d][1,3]thiazin-10-yl)-5-fluoropicolinamide]
27 nM | C[C@]12N=C(N)SC[C@H]1CCCc1ccc(NC(=O)c3ccc(OC(F)F)cn3)cc12 [Example 46a, N-((4aS,11bS)-2-Amino-11b-methyl-4,4a,5,6,7,11b-hexahydrobenzo[6,7]cyclohepta[1,2-d][1,3]thiazin-10-yl)-5-(difluoromethoxy)picolinamide]
4500 nM | Cc1ncc(-c2ccc3c(c2)[C@]2(C)N=C(N)SC[C@@H]2CCO3)s1 [Example 26a, (4aR,11bR)-11b-Methyl-10-(2-methylthiazol-5-yl)-4a,5,6,11b-tetrahydro-4H-benzo[2,3]oxepino[4,5-d][1,3]thiazin-2-amine]
790 nM | C[C@@]12N=C(N)SC[C@@H]1CCOc1ccc(NC(=O)c3ncc(Cl)cc3Cl)cc12 [Example 34b, N-((4aR,11bR)-2-Amino-11b-methyl-4a,5,6,11b-tetrahydro-4H-benzo[2,3]oxepino[4,5-d][1,3]thiazin-10-yl)-3,5-dichloropicolinamide]
6700 nM | C[C@@]12N=C(N)SC[C@@H]1CCCc1ccc(NC(=O)c3ccc(Cl)cn3)cc12 [Example 3b, 5-Chloro-pyridine-2-carboxylic acid ((4aR,11bR)-2-amino-11b-methyl-4,4a,5,6,7,11b-hexahydro-3-thia-1-aza-dibenzo[a,c]cyclohepten-10-yl)-amide]
35 nM | C[C@]12N=C(N)SC[C@H]1CCOc1ccc(NC(=O)c3ccc(Cl)cn3)cc12 [Example 33a, N-((4aS,11bS)-2-amino-11b-methyl-4a,5,6,11b-tetrahydro-4H-benzo[2,3]oxepino[4,5-d][1,3]thiazin-10-yl)-5-chloropicolinamide]

Second part, the compound before the results:

Compound | IC50
C[C@]12N=C(N)SC[C@H]1CCOc1ccc(NC(=O)c3ncc(Cl)cc3Cl)cc12 (relative stereo) [Example 34, rel-N-((4aS,11bS)-2-Amino-11b-methyl-4a,5,6,11b-tetrahydro-4H-benzo[2,3]oxepino[4,5-d][1,3]thiazin-10-yl)-3,5-dichloropicolinamide, 2,2,2-trifluoroacetate salt] | 26 nM
C[C@]12N=C(N)SC[C@H]1CCCc1ccc(NC(=O)c3ccc(Cl)cn3)cc12 (relative stereo) [Example 3, 5-Chloro-pyridine-2-carboxylic acid (rel-(4aS,11bS)-2-amino-11b-methyl-4,4a,5,6,7,11b-hexahydro-3-thia-1-aza-dibenzo[a,c]cyclohepten-10-yl)-amide, 2,2,2-trifluoroacetate] | 34 nM
C[C@]12N=C(N)SC[C@H]1CCOc1ccc(NC(=O)c3ccc(F)cn3)cc12 (relative stereo) [Example 36, rel-N-((4aS,11bS)-2-Amino-11b-methyl-4a,5,6,11b-tetrahydro-4H-benzo[2,3]oxepino[4,5-d][1,3]thiazin-10-yl)-5-fluoropicolinamide, 2,2,2-trifluoroacetate salt] | 85 nM
COc1cncc(-c2ccc3c(c2)[C@@]2(C)N=C(N)SC[C@H]2CCC3)c1 (relative stereo) [Example 11, rel-(4aS,11bS)-10-(5-methoxypyridin-3-yl)-11b-methyl-4,4a,5,6,7,11b-hexahydrobenzo[6,7]cyclohepta[1,2-d][1,3]thiazin-2-amine, bis(2,2,2-trifluoroacetate)] | 3400 nM
CC#Cc1cncc(-c2ccc3c(c2)[C@@]2(C)N=C(N)SC[C@H]2CCC3)c1 (relative stereo) [Example 15, rel-(4aS,11bS)-11b-Methyl-10-(5-(prop-1-yn-1-yl)pyridin-3-yl)-4,4a,5,6,7,11b-hexahydrobenzo[6,7]cyclohepta[1,2-d][1,3]thiazin-2-amine, bis(2,2,2-trifluoroacetate)] | 3600 nM
C[C@]12N=C(N)SC[C@H]1CCOc1ccc(-c3cncc4ccccc34)cc12 (relative stereo) [Example 29, rel-(4aS,11bS)-10-(isoquinolin-4-yl)-11b-methyl-4a,5,6,11b-tetrahydro-4H-benzo[2,3]oxepino[4,5-d][1,3]thiazin-2-amine, bis(2,2,2-trifluoroacetate)] | 4600 nM
C[C@]12N=C(N)SC[C@H]1CCOc1ccc(-c3cc4cc(C#N)ccc4[nH]3)cc12 (relative stereo) [Example 28, rel-2-((4aS,11bS)-2-amino-11b-methyl-4a,5,6,11b-tetrahydro-4H-benzo[2,3]oxepino[4,5-d][1,3]thiazin-10-yl)-1H-indole-5-carbonitrile, 2,2,2-trifluoroacetate salt] | 9700 nM
C[C@]12N=C(N)SC[C@H]1CCOc1ccc(-c3c[nH]c4ccccc34)cc12 (relative stereo) [Example 30, rel-(4aS,11bS)-10-(1H-indol-3-yl)-11b-methyl-4a,5,6,11b-tetrahydro-4H-benzo[2,3]oxepino[4,5-d][1,3]thiazin-2-amine, 2,2,2-trifluoroacetate salt] | 16000 nM
C[C@]12N=C(N)SC[C@H]1CCCc1ccc(Br)cc12 (relative stereo) [Example 16] | 2500 nM
C[C@]12N=C(N)SC[C@H]1CCOc1ccc(NC(=O)c3ccc(C#N)cn3)cc12 (relative stereo) [Example 35, rel-N-((4aS,11bS)-2-Amino-11b-methyl-4a,5,6,11b-tetrahydro-4H-benzo[2,3]oxepino[4,5-d][1,3]thiazin-10-yl)-5-cyanopicolinamide, 2,2,2-trifluoroacetate salt] | 28 nM
C[C@]12N=C(N)SC[C@H]1CCOc1ccc(-c3cnoc3)cc12 (relative stereo) [Example 25, rel-(4aS,11bS)-10-(Isoxazol-4-yl)-11b-methyl-4a,5,6,11b-tetrahydro-4H-benzo[2,3]oxepino[4,5-d][1,3]thiazin-2-amine, 2,2,2-trifluoroacetate salt] | 18000 nM
